Experimental findings from patent US20170044152A1, “COMPOUNDS THAT MODULATE INTRACELLULAR CALCIUM” (CalciMedica, Inc., priority 2012, published 2017) are described below.

SMILES strings stand for the structures.

T1 sequence (Q96D31 whole entry): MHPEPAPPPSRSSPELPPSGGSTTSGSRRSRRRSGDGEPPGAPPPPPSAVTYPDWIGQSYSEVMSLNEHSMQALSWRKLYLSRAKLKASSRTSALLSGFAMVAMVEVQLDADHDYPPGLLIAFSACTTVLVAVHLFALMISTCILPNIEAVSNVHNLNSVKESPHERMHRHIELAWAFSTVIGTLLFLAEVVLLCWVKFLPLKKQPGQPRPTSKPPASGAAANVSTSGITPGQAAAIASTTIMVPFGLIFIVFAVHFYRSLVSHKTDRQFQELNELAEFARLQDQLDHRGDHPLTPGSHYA

The first test addresses T1, Orai1/STIM1 (Homo sapiens, UniProt Q96D31).
T1 construct: c-myc (C); expressed in transfected cells; host or cells: HEK-293 cells stably overexpressing human STIM1, stably transfected with pcDNA3.1-Orai1-cmyc
Kind of test: Fluorescence-based assay of store-operated calcium entry in Orai1/STIM1 stable cells. Format: cell-based. The following applies: HEK-293 cells stably expressing human STIM1 and Orai1; Peak-Basal fluo-4 signal; Table iv; read-out: Orai1/STIM1 (IC50, μmol). The protocol: A. Fluorescence-based Assay of Store-Operated Calcium Entry in Orai1/STIM1 Stable Cells.
Cells stably expressing recombinant human STIM1 and Orai1 are generated by transfecting a human Orai1 expression plasmid (pcDNA3.1-Orai1-cmyc) into HEK-293 cells stably overexpressing human ST1M1 (Roos et al. 2005 JCB 169(3): 435-445). Colonies of cells stably expressing both STIM1 and Orai1 proteins are selected and then subcloned by limiting dilution. Cells were cultured at 37° C./6% CO2 in complete medium with 10% FBS and appropriate selection markers.
The day prior to performing the assay Orai1/STIM1 stable cells are plated in 50 μL of complete medium at 90-95% confluence in a 384 well plate. Cells are grown at 37° C./6% CO2 overnight. […] The initial baseline fluorescence signal is then measured with a FLIPR^384 (Molecular Devices) plate reader. Calcium entry is initiated by adding 5 μl of 10× CaCl2 (10 mM) in HBSS, and changes in cellular fluorescence are measured with the FLIPR^384 plate reader. In each well, the magnitude of the fluorescence signal as a result of calcium entry into the cell is determined by calculating the difference between the peak fluorescence signal measured after calcium addition and the initial baseline fluorescence signal (designated Peak-Basal). […]
Regarding `Cc1cccc(F)c1C(=O)Nc1ccc(-c2cc(-c3ccccc3F)nn2C)s1` [Compound 23], the IC50 is 600 to 1200 nM.

The subject of a further test is RBL-2H3 cells. Kind of test: Fluorescence-based assay of store-operated calcium entry in RBL-2H3 cells. Format: cell-based. As to conditions: Rattus norvegicus, Table v, read-out: IC50 (nM) RBL. How it is done: B. Fluorescence-based Assay of Store-Operated Calcium Entry in RBL-2H3 Cells.
RBL-2H3 cells are obtained from ATCC and maintained in complete medium with 10% FBS at 37° C./6% CO2.
The day prior to performing the assay, RBL-2H3 cells are plated in 50 μL of complete medium in a 384 well plate. Cells are grown at 37° C./6% CO2 overnight and grow to 50-60% confluence by the next day. On the assay day, 1.5 μM Fluo-4-AM dye (Invitrogen) in complete medium is added and incubated for 1 hour at RT. Cells are washed twice in Ca^2+-free HBSS buffer and 35 μL Ca^2|-free HBSS buffer is added to each well. 10 μL of a test compound prepared in a Ca^2+-free HBSS solution at […] of the desired concentration is added to a well and incubated for 5 minutes at RT. 10 μL of thapsigargin prepared in a Ca^2+-free HBSS solution at 5.5× of the desired concentration (5.5 uM) is added to each well and incubated for an additional 25 minutes. The initial baseline fluorescence signal is measured with a FLIPR^384 (Molecular Devices) plate reader. 5 μL of 12× calcium in HBSS (12 mM) is added and changes in cellular fluorescence arc measured with the FLIPR^384 plate reader. In each well, the change in the fluorescent signal as a function of time due to calcium entry into the cell is determined by calculating the difference between the fluorescent signal measured 7 seconds after calcium addition and the initial baseline fluorescence signal at time zero (t=0). This parameter is designated Upslope. The IC50 value is calculated as the concentration at which 50% of the Upslope is inhibited.
For `C=Cn1nc(-c2nccs2)cc1-c1ccc(NC(=O)c2c(F)cccc2F)s1` [Compound 5, (2,6-difluorophenyl)-N-[5-(3-(1,3-thiazol-2-yl)-1-vinylpyrazol-5-yl](2-thienyl)] carboxamide], the IC50 came to 106 nM.

Staying with this test, now noted: Rattus norvegicus, thapsigargin, Upslope of fluo-4 signal, Table iii, read-out: RBL-2H3 (IC50, μmol).
Take `Cc1oc(C(F)(F)F)nc1-c1ccc(NC(=O)c2c(F)cncc2F)nc1` [Compound 17, 3,5-difluoro-N-(5-(5-methyl-2-(trifluoromethyl)oxazol-4-yl)pyridin-2-yl)isonicotinamide]: the IC50 is under 600 nM.

Take `CCc1oc(C(F)(F)F)nc1-c1ccc(NC(=O)c2c(F)cccc2F)nc1` [Compound 25, N-(5-(5-ethyl-2-(trifluoromethyl)oxazol-4-yl)pyridin-2-yl)-2,6-difluorobenzamide]: the IC50 is under 600 nM.

Take `Cc1oc(C(F)(F)F)nc1-c1ccc(NC(=O)c2c(F)cccc2F)nc1` [Compound 14, 2,6-difluoro-N-(5-(5-methyl-2-(trifluoromethyl)oxazol-4-yl)pyridin-2-yl)benzamide]: the IC50 is under 600 nM.

With `CCc1oc(C(F)(F)F)nc1-c1ccc(NC(=O)c2ccccc2F)nc1` [Compound 24, N-(5-(5-ethyl-2-(trifluoromethyl)oxazol-4-yl)pyridin-2-yl)-2-fluorobenzamide], the IC50 is under 600 nM.

With `Cc1oc(C(F)(F)F)nc1-c1ccc(NC(=O)c2ccccc2F)nc1` [Compound 16], the IC50 is under 600 nM.

Turning to `Cc1oc(C(F)(F)F)nc1-c1ccc(NC(=O)c2cccc(F)c2C)nc1` [Compound 19, 3-fluoro-2-methyl-N-(5-(5-methyl-2-(trifluoromethyl)oxazol-4-yl)pyridin-2-yl)benzamide], the IC50 was under 600 nM.

For the molecule `Cc1ccccc1C(=O)Nc1ccc(-c2nc(C(F)(F)F)oc2C)cn1` [Compound 15], the IC50 is under 600 nM.

The test is the same for the next values; noted with them: Rattus norvegicus, thapsigargin, Upslope of fluo-4 signal, Table iv, read-out: RBL-2H3 (IC50, μmol).
`Cn1nc(-c2nccs2)cc1-c1ccc(NC(=O)c2c(F)cccc2F)s1` [Compound 6, (2,6-difluorophenyl)-N-[5-[1-methyl-3-(1,3-thiazol-2-yl)pyrazol-5-yl](2-thienyl)] carboxamide]: the IC50 is under 600 nM.

In the case of `Cn1nc(-c2nccs2)cc1-c1ccc(NC(=O)c2c(F)cc(F)cc2F)s1` [Compound 10, (2,4,6-trifluorophenyl)-N-[5-[1-methyl-3-(1,3-thiazol-2-yl)pyrazol-5-yl](2-thienyl)] carboxamide], the IC50 is under 600 nM.

Regarding `CCn1nc(-c2nccs2)cc1-c1ccc(NC(=O)c2c(F)cc(F)cc2F)s1` [Compound 16], the IC50 is under 600 nM.

On to `Cn1nc(-c2ccccn2)cc1-c1ccc(NC(=O)c2c(F)cccc2F)s1` [Compound 28, 2,6-difluoro-N-(5-(1-methyl-3-(pyridin-2-yl)-1H-pyrazol-5-yl)thiophen-2-yl)benzamide], for which the IC50 was under 600 nM.

Take `Cn1nc(-c2nccs2)cc1-c1ccc(NC(=O)c2ccc(F)cc2F)s1` [Compound 7, (2,4-difluorophenyl)-N-[5-[1-methyl-3-(1,3-thiazol-2-yl)pyrazol-5-yl](2-thienyl)] carboxamide]: the IC50 is under 600 nM.

For the molecule `CCn1nc(-c2nccs2)cc1-c1ccc(NC(=O)c2c(F)cccc2F)s1` [Compound 15], the IC50 is under 600 nM.

In the case of `Cn1nc(-c2ccccn2)cc1-c1ccc(NC(=O)c2c(F)cc(F)cc2F)s1` [Compound 27, 2,4,6-trifluoro-N-(5-(1-methyl-3-(pyridin-2-yl)-1H-pyrazol-5-yl)thiophen-2-yl)benzamide], the IC50 is under 600 nM.

On to `Cc1cccc(F)c1C(=O)Nc1ccc(-c2cc(-c3ccccc3F)nn2C)s1` [Compound 23], for which the IC50 is under 600 nM.

For the next test, the system named is JR251. Kind of test: JR251 IC50 (Table v). Format: cell-based.
Details: not given
In turn, `C=Cn1nc(-c2nccs2)cc1-c1ccc(NC(=O)c2c(F)cccc2F)s1` [Compound 5, (2,6-difluorophenyl)-N-[5-(3-(1,3-thiazol-2-yl)-1-vinylpyrazol-5-yl](2-thienyl)] carboxamide] registered an IC50 of 1210 nM.
